# From PMC5981863 (ACS infectious diseases, 2017)
# Columns and labels:
# [1] = system: E. coli DH10B pBCSK, blaADC-7; assay: MIC, agar dilution and liquid microdilution; assay type: cell-based, Escherichia coli
# [2] = system: E. coli DH10B pBCSK, blaADC-7, N213A; assay: MIC, agar dilution and liquid microdilution; assay type: cell-based, Escherichia coli
# ADC-7 = assay: Thermal denaturation by circular dichroism; assay type: binding, Acinetobacter baumannii; details: ADC-7 alone Tm ≈61 °C
# A. baumannii M9 = assay: MIC, agar dilution and liquid microdilution; assay type: cell-based
# E. coli DH10B = assay: MIC, agar dilution and liquid microdilution; assay type: cell-based, Escherichia coli
# [3] = system: E. coli DH10B pBCSK, blaADC-7, R340K; assay: MIC, agar dilution and liquid microdilution; assay type: cell-based, Escherichia coli
# [4] = system: E. coli DH10B pBCSK, blaADC-7, R340A; assay: MIC, agar dilution and liquid microdilution; assay type: cell-based, Escherichia coli
# ADC-7/R340A mutant = assay: Competition kinetics with nitrocefin; assay type: biochemical, Acinetobacter baumannii
# [5] = MIC of CAZ in combination with 4 μg/mL BATSI compound
smiles,measurement,setting,value
O=S(=O)(NCB(O)O)c1ccc(-c2nn[nH]n2)cc1C(F)(F)F [CR192],MIC,[1]; [5],2 µg/mL
same,MIC,[2]; [5],1 µg/mL
same,Tm of ADC-7/compound complex,ADC-7,~70 °C
same,MIC,A. baumannii M9; [5],8 µg/mL
same,MIC,E. coli DH10B; [5],0.5 µg/mL
same,MIC,[3]; [5],2 µg/mL
same,MIC,[4]; [5],0.5 µg/mL
same,Ki,ADC-7/R340A mutant,8.3 nM
"O=C(Cc1cccs1)NCB(O)O [achiral cephalothin, reference compound]",MIC,[1]; [5],32 µg/mL
same,MIC,[2]; [5],32 µg/mL
same,MIC,A. baumannii M9; [5],32 µg/mL
same,MIC,E. coli DH10B; [5],0.5 µg/mL
same,MIC,[3]; [5],32 µg/mL
same,MIC,[4]; [5],32 µg/mL
O=C(O)c1cccc(CS(=O)(=O)NCB(O)O)c1 [CR167],MIC,[1]; [5],1 µg/mL
same,MIC,[2]; [5],4 µg/mL
same,MIC,A. baumannii M9; [5],16 µg/mL
same,MIC,E. coli DH10B; [5],0.5 µg/mL
same,MIC,[3]; [5],4 µg/mL
same,MIC,[4]; [5],2 µg/mL
O=S(=O)(NCB(O)O)c1ccc(-c2nn[nH]n2)nc1 [CR161],MIC,[1]; [5],0.5 µg/mL
same,MIC,[2]; [5],2 µg/mL
same,MIC,E. coli DH10B; [5],0.5 µg/mL
same,MIC,[3]; [5],1 µg/mL
same,MIC,[4]; [5],1 µg/mL
"CC(C)(O/N=C(\C(=O)N[C@@H]1C(=O)N2C(C(=O)[O-])=C(C[n+]3ccccc3)CS[C@H]12)c1csc(N)n1)C(=O)O [CAZ, ceftazidime, reference compound]",MIC,[1]; Escherichia coli,64 µg/mL
same,MIC,[2]; Escherichia coli,32 µg/mL
same,MIC,"A. baumannii M9; Acinetobacter baumannii, M9",> 64 µg/mL
same,MIC,A. baumannii M9; CAZ alone,>64 µg/mL
same,MIC,"E. coli DH10B; Escherichia coli, DH10B",1 µg/mL
same,MIC,[3]; Escherichia coli,32 µg/mL
same,MIC,[4]; Escherichia coli,32 µg/mL
O=S(=O)(NCB(O)O)c1ccc(-c2nn[nH]n2)cc1 [CR157],MIC,[1]; [5],1 µg/mL
same,MIC,[2]; [5],2 µg/mL
same,MIC,A. baumannii M9; [5],8 µg/mL
same,MIC,E. coli DH10B; [5],0.5 µg/mL
same,MIC,[3]; [5],1 µg/mL
same,MIC,[4]; [5],0.5 µg/mL
